Results on 26 molecules are retold here after patent US9850225B2, “Compounds useful as immunomodulators” (BRISTOL-MYERS SQUIBB COMPANY, priority 2014, dated 2017).

Read-outs that look alike come from different tables or passages of the source.

This test concerns the target PD-1/PD-L1 interaction (PD-1-Ig / PD-L1-His) (Homo sapiens (Human), UniProt Q9NZQ7). Nature of the test: PD-1/PD-L1 Homogenous Time-Resolved Fluorescence (HTRF) binding assay. The following applies: PD-1/PD-L1 HTRF binding assay, read-out: Range or IC50. Summed up: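 Human PD-L1-His (10 nM final) was pre-incubated with inhibitor for 15 min, then PD-1-Ig (20 nM final) was added for a further 15 min in dPBS with 0.1% BSA and 0.05% Tween-20. Binding was detected by HTRF using Eu-cryptate anti-Ig (1 nM) and APC anti-His (20 nM).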
On the technique in general: Time-resolved FRET reads energy transfer from a long-lived donor to a nearby acceptor.

Chain of PD-1/PD-L1 interaction (PD-1-Ig / PD-L1-His) (Q9NZQ7 other isoform, or with tags, fused parts or gaps): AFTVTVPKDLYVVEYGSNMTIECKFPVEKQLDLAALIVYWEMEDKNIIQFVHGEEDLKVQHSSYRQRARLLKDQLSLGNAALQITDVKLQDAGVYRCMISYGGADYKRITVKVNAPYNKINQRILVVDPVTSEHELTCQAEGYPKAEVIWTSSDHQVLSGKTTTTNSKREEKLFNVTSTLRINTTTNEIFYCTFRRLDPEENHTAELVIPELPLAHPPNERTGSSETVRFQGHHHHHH

By IC50 is commonly meant the concentration that gives 50% inhibition. On to `Cc1cc(CN2CCCC[C@H]2C(=O)O)c(OCc2ccc(F)c(C#N)c2)cc1OCc1cccc(-c2ccc3c(c2)OCCO3)c1C` [Example 1272, (S)-1-(2-((3-cyano-4-fluorobenzyl)oxy)-4-((3-(2,3-dihydrobenzo[b][1,4]dioxin-6-yl)-2-methylbenzyl)oxy)-5-methylbenzyl)piperidine-2-carboxylic acid], for which, for the setting “value given as range class”, the IC50 is 0.6 to 10 nM.
Still for that read-out and setting: the same measure for `COc1cc(OCc2cccc(-c3ccccc3)c2C)cc(OCc2cccc(C#N)c2)c1CN[C@H](CO)C(=O)O` [Example 1134, (R)-2-((2-((3-cyanobenzyl)oxy)-6-methoxy-4-((2-methyl-[1,1′-biphenyl]-3-yl)methoxy)benzyl)amino)-3-hydroxypropanoic acid]: 0.6 to 10 nM; for `COc1cc(COc2cc(OCc3cccc(-c4ccc5c(c4)OCCO5)c3C)c(Cl)cc2CN[C@@](C)(CO)C(=O)O)ccn1` [Example 3015, (2S)-2-{[(5-chloro-4-{[3-(2,3-dihydro-1,4-benzodioxin-6-yl)-2-methylphenyl]methoxy}-2-[(2-methoxypyridin-4-yl)methoxy]phenyl)methyl]amino}-3-hydroxy-2-methylpropanoic acid]: 0.6 to 10 nM.
With `CC(=O)NCCNCc1c(C)cc(OCc2cccc(-c3ccc4c(c3)OCCO4)c2C)cc1OCc1cccc(C#N)c1` [Example 1000, N-(2-(2-(3-cyanobenzyloxy)-4-(3-(2,3-dihydrobenzo[b][1,4]dioxin-6-yl)-2-methylbenzyloxy)-6-methylbenzylamino)ethyl)acetamide], the IC50 (value given as range class) lay in the range of 10 to 100 nM.
For `Cc1c(COc2cc(OCc3cncc(C#N)c3)c(CN[C@@H](CCN)C(=O)O)cc2Cl)cccc1-c1ccc2c(c1)OCCO2` [Example 2005, (S)-4-amino-2-((5-chloro-2-((5-cyanopyridin-3-yl)methoxy)-4-((3-(2,3-dihydrobenzo[b][1,4]dioxin-6-yl)-2-methylbenzyl)oxy)benzyl)amino)butanoic acid], under “value given as range class”, the IC50 was 10 to 100 nM.
The same measure, in the same setting: the same measure for `Cc1c(COc2cc(OCc3cccc(C#N)c3)c(CN(C)C(C)C(=O)O)cc2Cl)cccc1-c1ccc2c(c1)OCCO2` (centres unmarked) [Example 1188, 2-((5-chloro-2-((3-cyanobenzyl)oxy)-4-((3-(2,3-dihydrobenzo[b][1,4]dioxin-6-yl)-2-methylbenzyl)oxy)benzyl)(methyl)amino)propanoic acid]: 0.6 to 10 nM; for `CC(=O)Nc1cc(COc2cc(OCc3cccc(-c4ccc5c(c4)OCCO5)c3C)c(Cl)cc2CN[C@@](C)(CO)C(=O)O)ccn1` [Example 3011, (S)-2-((2-((2-acetamidopyridin-4-yl)methoxy)-5-chloro-4-((3-(2,3-dihydrobenzo[b][1,4]dioxin-6-yl)-2-methylbenzyl)oxy)benzyl)amino)-3-hydroxy-2-methylpropanoic acid]: 0.6 to 10 nM; for `CC(=O)NCCNCc1ccc(OCc2cccc(-c3ccccc3)c2C)cc1OCc1ccc(C(C)(C)C)cc1` [Example 1046, N-(2-((2-((4-(tert-butyl)benzyl)oxy)-4-((2-methyl-[1,1′-biphenyl]-3-yl)methoxy)benzyl)amino)ethyl)acetamide]: 100 to 20000 nM.
In the case of `Cc1cc(OCc2cccc(-c3ccc4c(c3)OCCO4)c2C)cc(OCc2cncc(C#N)c2)c1CN1CCCC[C@H]1C(=O)O` [Example 1009, (S)-1-(2-((5-cyanopyridin-3-yl)methoxy)-4-(3-(2,3-dihydrobenzo[b][1,4]dioxin-6-yl)-2-methylbenzyloxy)-6-methylbenzyl)piperidine-2-carboxylic acid], for the setting “value given as range class”, the IC50 lay in the range of 0.6 to 10 nM.
Same read-out and setting: then `Cc1c(COc2cc(OCc3ccnc(C(=O)N(C)C)c3)c(CO)cc2Cl)cccc1-c1ccc2c(c1)OCCO2` [Example 3019, 4-(4-chloro-5-{[3-(2,3-dihydro-1,4-benzodioxin-6-yl)-2-methylphenyl]methoxy}-2-(hydroxymethyl)phenoxymethyl)-N,N-dimethylpyridine-2-carboxamide], with 100 to 20000 nM.
The same measure, in the same setting: the same measure for `CC(=O)NCCNCc1ccc(OCc2cccc(-c3ccccc3)c2C)cc1OCc1cccnc1` [Example 1117, N-(2-((4-((2-methyl-[1,1′-biphenyl]-3-yl)methoxy)-2-(pyridin-3-ylmethoxy)benzyl)amino)ethyl)acetamide]: 10 to 100 nM.
Same read-out and setting: the same measure for `Cc1c(COc2cc(OCc3cncc(C#N)c3)c(CN3CCCC[C@H]3C(=O)NS(=O)(=O)C(F)(F)F)cc2Cl)cccc1-c1ccc2c(c1)OCCO2` [Example 1258, (S)-1-(5-chloro-2-((5-cyanopyridin-3-yl)methoxy)-4-((3-(2,3-dihydrobenzo[b][1,4]dioxin-6-yl)-2-methylbenzyl)oxy)benzyl)-N-((trifluoromethyl)sulfonyl)piperidine-2-carboxamide]: 10 to 100 nM; for `CC(=O)NCCNCc1ccc(OCc2cccc(-c3ccccc3)c2C)cc1OCc1cccc(F)c1` [Example 1050, N-(2-((2-((3-fluorobenzyl)oxy)-4-((2-methyl-[1,1′-biphenyl]-3-yl)methoxy)benzyl)amino)ethyl)acetamide]: 100 to 20000 nM.
In the case of `Cc1c(COc2ccc(CN[C@@H](C(=O)O)[C@@H](C)O)c(OCc3cccc(C#N)c3)c2)cccc1-c1ccc2c(c1)OCCO2` [Example 1125, (2R,3R)-2-((2-((3-cyanobenzyl)oxy)-4-((3-(2,3-dihydrobenzo[b][1,4]dioxin-6-yl)-2-methylbenzyl)oxy)benzyl)amino)-3-hydroxybutanoic acid], under “value given as range class”, the IC50 fell in the range of 0.6 to 10 nM.
On to `CC(=O)NCCNCc1ccc(OCc2cccc(-c3ccccc3)c2C)cc1OCc1ccc(F)c(C)c1` [Example 1108, N-(2-((2-((4-fluoro-3-methylbenzyl)oxy)-4-((2-methyl-[1,1′-biphenyl]-3-yl)methoxy)benzyl)amino)ethyl)acetamide], for which the IC50 (numeric value) was determined as 624 nM.
With `COc1ccc(C(=O)O)cc1COc1cc(OCc2cccc(-c3ccc4c(c3)OCCO4)c2C)c(Cl)cc1CN1CCCC[C@H]1C(=O)O` [Example 3027, (S)-1-(2-((5-carboxy-2-methoxybenzyl)oxy)-5-chloro-4-((3-(2,3-dihydrobenzo[b][1,4]dioxin-6-yl)-2-methylbenzyl)oxy)benzyl)piperidine-2-carboxylic acid], the IC50 (value given as range class) was 100 to 20000 nM.
The same measure, in the same setting: then `Cc1c(COc2cc(OCc3cncc(C#N)c3)c(CN3C[C@@H](O)CC[C@H]3C(=O)O)cc2Cl)cccc1-c1ccc2c(c1)OCCO2` [Example 2007, (2S,5S)-1-(5-chloro-2-((5-cyanopyridin-3-yl)methoxy)-4-((3-(2,3-dihydrobenzo[b][1,4]dioxin-6-yl)-2-methylbenzyl)oxy)benzyl)-5-hydroxypiperidine-2-carboxylic acid], with 0.6 to 10 nM.
On the same count and under the same terms, then `Cc1c(COc2cc(OCc3cncc(C#N)c3)c(CN[C@@H](CO)C(=O)O)cc2Br)cccc1-c1ccc2c(c1)OCCO2` [Example 1318, (S)-2-(5-bromo-2-((5-cyanopyridin-3-yl)methoxy)-4-(3-(2,3-dihydrobenzo[b][1,4]dioxin-6-yl)-2-methylbenzyloxy)benzylamino)-3-hydroxypropanoic acid], with 0.6 to 10 nM.
The same measure, in the same setting: the same measure for `Cc1cc(CN[C@@](C)(CO)C(=O)O)c(OCc2cccc(C#N)c2)cc1OCc1cccc(-c2ccc3c(c2)OCCO3)c1C` [Example 1267, (S)-2-((2-((3-cyanobenzyl)oxy)-4-((3-(2,3-dihydrobenzo[b][1,4]dioxin-6-yl)-2-methylbenzyl)oxy)-5-methylbenzyl)amino)-3-hydroxy-2-methylpropanoic acid]: 0.6 to 10 nM; for `Cc1c(C#N)cncc1COc1cc(OCc2cccc(-c3ccccc3)c2C)ccc1CN[C@H](CO)C(=O)O` [Example 1324, (R)-2-(2-((5-cyano-4-methylpyridin-3-yl)methoxy)-4-((2-methylbiphenyl-3-yl)methoxy)benzylamino)-3-hydroxypropanoic acid]: 10 to 100 nM; for `Cc1c(COc2cc(OCc3cncc(C#N)c3)c(CN[C@@H](CCCCN(C)C)C(=O)O)cc2Cl)cccc1-c1ccc2c(c1)OCCO2` [Example 2006, (S)-2-((5-chloro-2-((5-cyanopyridin-3-yl)methoxy)-4-((3-(2,3-dihydrobenzo[b][1,4]dioxin-6-yl)-2-methylbenzyl)oxy)benzyl)amino)-6-(dimethylamino)hexanoic acid]: 0.6 to 10 nM.
As for `CC(=O)NCCNCc1ccc(OCc2cccc(-c3ccccc3)c2C)cc1OCc1cccc(CO)c1` [Example 1037, N-(2-((2-((3-(hydroxymethyl)benzyl)oxy)-4-((2-methyl-[1,1′-biphenyl]-3-yl)methoxy)benzyl)amino)ethyl)acetamide], the IC50 (value given as range class) was 100 to 20000 nM.
On the same count and under the same terms, the same measure for `COc1cc(OCc2cccc(-c3ccccc3)c2C)cc(OCc2cccc(C#N)c2)c1CNC(C)(CO)C(=O)O` (centres unmarked) [Example 1137, 2-((2-((3-cyanobenzyl)oxy)-6-methoxy-4-((2-methyl-[1,1′-biphenyl]-3-yl)methoxy)benzyl)amino)-3-hydroxy-2-methylpropanoic acid]: 0.6 to 10 nM; for `Cc1cc(CN[C@@](C)(CO)C(=O)O)c(OCc2cncc(C#N)c2)cc1OCc1cccc(-c2ccc3c(c2)OCCO3)c1C#N` [Example 1308, (S)-2-(4-(2-cyano-3-(2,3-dihydrobenzo[b][1,4]dioxin-6-yl)benzyloxy)-2-((5-cyanopyridin-3-yl)methoxy)-5-methylbenzylamino)-3-hydroxy-2-methylpropanoic acid]: 0.6 to 10 nM; for `CC(=O)NCCNCc1ccc(OCc2cccc(-c3ccccc3)c2C)cc1OCc1ccc(Cl)c(Cl)c1` [Example 1069, N-(2-((2-((3,4-dichlorobenzyl)oxy)-4-((2-methyl-[1,1′-biphenyl]-3-yl)methoxy)benzyl)amino)ethyl)acetamide]: 100 to 20000 nM.
Still for that read-out and setting: then `Cc1c(COc2cc(OCc3cccc(C#N)c3)c(CN[C@@H](CC#N)C(=O)O)cc2Cl)cccc1-c1ccc2c(c1)OCCO2` [Example 1180, (S)-2-((5-chloro-2-((3-cyanobenzyl)oxy)-4-((3-(2,3-dihydrobenzo[b][1,4]dioxin-6-yl)-2-methylbenzyl)oxy)benzyl)amino)-3-cyanopropanoic acid], with 10 to 100 nM.
